Measurements published in US8513238B2 (Hoffmann-La Roche Inc., priority 2010, dated 2013).
Counter-ions that a name gives are not always drawn.

Target: T1, human V1a receptor (Homo sapiens, UniProt P37288)
T1 construct: expressed in transfected cells; host or cells: HEK293 cells, transiently transfected; membranes prepared
Assay: human V1a receptor binding (3H-Vasopressin SPA, HEK293 membranes)
Conditions: membranes of HEK293 cells transiently transfected with human V1a receptor, Ki by Cheng-Prussoff, read-out: pKi (hV1a) (converted)
Method in brief: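 HEK293 membranes transiently expressing cloned human V1a receptor, bound to yttrium silicate SPA beads in Tris/NaCl/KCl/CaCl2/MgCl2 buffer. Test compounds in 2% DMSO competed with 3H-vasopressin (4 nM solution added) for 1 h at room temperature; non-specific binding defined with cold vasopressin. IC50 from non-linear fit, Ki via Cheng-Prusoff.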

T1 sequence (P37288 whole entry): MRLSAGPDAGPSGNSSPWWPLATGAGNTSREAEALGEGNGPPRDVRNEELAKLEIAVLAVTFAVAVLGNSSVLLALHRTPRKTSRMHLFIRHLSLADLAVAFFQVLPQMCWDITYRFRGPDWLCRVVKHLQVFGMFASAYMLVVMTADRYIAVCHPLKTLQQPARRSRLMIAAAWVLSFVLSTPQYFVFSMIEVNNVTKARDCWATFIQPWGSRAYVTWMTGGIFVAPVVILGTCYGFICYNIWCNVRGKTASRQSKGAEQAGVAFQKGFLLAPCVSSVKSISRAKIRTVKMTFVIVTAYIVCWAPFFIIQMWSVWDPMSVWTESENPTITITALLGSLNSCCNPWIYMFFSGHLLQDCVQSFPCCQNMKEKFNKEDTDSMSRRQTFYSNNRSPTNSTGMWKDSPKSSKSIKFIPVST

| Structure (SMILES) | Ki [nM] |
| --- | --- |
| Cc1noc([C@H]2CC[C@H](c3nnc4n3-c3ccc(Cl)cc3CNC4)CC2)n1 [Example 67, trans-8-Chloro-1-[4-(3-methyl-[1,2,4]oxadiazol-5-yl)-cyclohexyl]-5,6-dihydro-4H-2,3,5,10b-tetraaza-benzo[e]azulene hydrochloride] | 67.6 |
| Cc1noc([C@H]2CC[C@H](c3nnc4n3-c3ccc(Cl)cc3CN(C)C4)CC2)n1 [Example 68, trans-8-Chloro-5-methyl-1-[4-(3-methyl-[1,2,4]oxadiazol-5-yl)-cyclohexyl]-5,6-dihydro-4H-2,3,5,10b-tetraaza-benzo[e]azulene] | 6.61 |
| Cc1nsc([C@H]2CC[C@H](c3nnc4n3-c3ccc(Cl)cc3CN(C(=O)OC(C)(C)C)C4)CC2)n1 [Example 69, trans-8-Chloro-1-[4-(3-methyl-[1,2,4]thiadiazol-5-yl)-cyclohexyl]-4H,6H-2,3,5,10b-tetraaza-benzo[e]azulene-5-carboxylic acid tert-butyl ester] | 1.51 |
| Cc1nsc([C@H]2CC[C@H](c3nnc4n3-c3ccc(Cl)cc3CNC4)CC2)n1 [Example 70, trans-8-Chloro-1-[4-(3-methyl-[1,2,4]thiadiazol-5-yl)-cyclohexyl]-5,6-dihydro-4H-2,3,5,10b-tetraaza-benzo[e]azulene] | 129 |
| Cc1nsc([C@H]2CC[C@H](c3nnc4n3-c3ccc(Cl)cc3CN(C)C4)CC2)n1 [Example 71, trans-8-Chloro-5-methyl-1-[4-(3-methyl-[1,2,4]thiadiazol-5-yl)-cyclohexyl]-5,6-dihydro-4H-2,3,5,10b-tetraaza-benzo[e]azulene] | 15.1 |
| Cc1nc([C@H]2CC[C@H](c3nnc4n3-c3ccc(Cl)cc3CN(C(=O)OC(C)(C)C)C4)CC2)no1 [Example 72, trans-8-Chloro-1-[4-(5-methyl-[1,2,4]oxadiazol-3-yl)-cyclohexyl]-4H,6H-2,3,5,10b-tetraaza-benzo[e]azulene-5-carboxylic acid tert-butyl ester] | 0.708 |
| Cc1nc([C@H]2CC[C@H](c3nnc4n3-c3ccc(Cl)cc3CNC4)CC2)no1 [Example 73, trans-8-Chloro-1-[4-(5-methyl-[1,2,4]oxadiazol-3-yl)-cyclohexyl]-5,6-dihydro-4H-2,3,5,10b-tetraaza-benzo[e]azulene hydrochloride] | 15.8 |
| Cc1nc([C@H]2CC[C@H](c3nnc4n3-c3ccc(Cl)cc3CN(C)C4)CC2)no1 [Example 74, trans-8-Chloro-5-methyl-1-[4-(5-methyl-[1,2,4]oxadiazol-3-yl)-cyclohexyl]-5,6-dihydro-4H-2,3,5,10b-tetraaza-benzo[e]azulene] | 3.24 |
| CCN1Cc2cc(Cl)ccc2-n2c(nnc2[C@H]2CC[C@H](c3noc(C)n3)CC2)C1 [Example 75, trans-8-Chloro-5-ethyl-1-[4-(5-methyl-[1,2,4]oxadiazol-3-yl)-cyclohexyl]-5,6-dihydro-4H-2,3,5,10b-tetraaza-benzo[e]azulene] | 6.76 |
| Cc1nc([C@H]2CC[C@H](c3nnc4n3-c3ccc(Cl)cc3CN(C(C)C)C4)CC2)no1 [Example 76, trans-8-Chloro-5-isopropyl-1-[4-(5-methyl-[1,2,4]oxadiazol-3-yl)-cyclohexyl]-5,6-dihydro-4H-2,3,5,10b-tetraaza-benzo[e]azulene] | 10 |
| Cc1nc([C@H]2CC[C@H](c3nnc4n3-c3ccc(Cl)cc3CN(C3CCC3)C4)CC2)no1 [Example 77, trans-8-Chloro-5-cyclobutyl-1-[4-(5-methyl-[1,2,4]oxadiazol-3-yl)-cyclohexyl]-5,6-dihydro-4H-2,3,5,10b-tetraaza-benzo[e]azulene] | 1.51 |
| Cc1nc([C@H]2CC[C@H](c3nnc4n3-c3ccc(Cl)cc3CN(C3CCCC3)C4)CC2)no1 [Example 78, trans-8-Chloro-5-cyclopentyl-1-[4-(5-methyl-[1,2,4]oxadiazol-3-yl)-cyclohexyl]-5,6-dihydro-4H-2,3,5,10b-tetraaza-benzo[e]azulene] | 5.89 |
| Cc1nc([C@H]2CC[C@H](c3nnc4n3-c3ccc(Cl)cc3CN(CC(F)F)C4)CC2)no1 [Example 79, trans-8-Chloro-5-(2,2-difluoro-ethyl)-1-[4-(5-methyl-[1,2,4]oxadiazol-3-yl)-cyclohexyl]-5,6-dihydro-4H-2,3,5,10b-tetraaza-benzo[e]azulene] | 3.39 |
| CC(=O)N1Cc2cc(Cl)ccc2-n2c(nnc2[C@H]2CC[C@H](c3noc(C)n3)CC2)C1 [Example 80, trans-1-{8-Chloro-1-[4-(5-methyl-[1,2,4]oxadiazol-3-yl)-cyclohexyl]-4H,6H-2,3,5,10b-tetraaza-benzo[e]azulen-5-yl}-ethanone] | 22.9 |
| Cc1nc([C@H]2CC[C@H](c3nnc4n3-c3ccc(Cl)cc3CN(S(C)(=O)=O)C4)CC2)no1 [Example 81, trans-8-Chloro-5-methanesulfonyl-1-[4-(5-methyl-[1,2,4]oxadiazol-3-yl)-cyclohexyl]-5,6-dihydro-4H-2,3,5,10b-tetraaza-benzo[e]azulene] | 4.27 |
| Cc1nc([C@H]2CC[C@@H](c3nnc4n3-c3ccc(Cl)cc3CN(C(=O)OC(C)(C)C)C4)CC2)no1 [Example 82, cis-8-Chloro-1-[4-(5-methyl-[1,2,4]oxadiazol-3-yl)-cyclohexyl]-4H,6H-2,3,5,10b-tetraaza-benzo[e]azulene-5-carboxylic acid tert-butyl ester] | 14.8 |

| Structure (SMILES) | Ki [nM] |
| --- | --- |
| Cc1nc([C@H]2CC[C@@H](c3nnc4n3-c3ccc(Cl)cc3CNC4)CC2)no1 [Example 83, cis-8-Chloro-1-[4-(5-methyl-[1,2,4]oxadiazol-3-yl)-cyclohexyl]-5,6-dihydro-4H-2,3,5,10b-tetraaza-benzo[e]azulene hydrochloride] | 617 |
| Cc1nc([C@H]2CC[C@@H](c3nnc4n3-c3ccc(Cl)cc3CN(C)C4)CC2)no1 [Example 84, cis-8-Chloro-5-methyl-1-[4-(5-methyl-[1,2,4]oxadiazol-3-yl)-cyclohexyl]-5,6-dihydro-4H-2,3,5,10b-tetraaza-benzo[e]azulene] | 135 |
| CCc1nc([C@H]2CC[C@@H](c3nnc4n3-c3ccc(Cl)cc3CN(C(=O)OC(C)(C)C)C4)CC2)no1 [Example 85, cis-8-Chloro-1-[4-(5-ethyl-[1,2,4]oxadiazol-3-yl)-cyclohexyl]-4H,6H-2,3,5,10b-tetraaza-benzo[e]azulene-5-carboxylic acid tert-butyl ester] | 40.7 |
| CCc1nc([C@H]2CC[C@H](c3nnc4n3-c3ccc(Cl)cc3CN(C(=O)OC(C)(C)C)C4)CC2)no1 [Example 86, trans-8-Chloro-1-[4-(5-ethyl-[1,2,4]oxadiazol-3-yl)-cyclohexyl]-4H,6H-2,3,5,10b-tetraaza-benzo[e]azulene-5-carboxylic acid tert-butyl ester] | 3.09 |
| CCc1nc([C@H]2CC[C@H](c3nnc4n3-c3ccc(Cl)cc3CNC4)CC2)no1 [Example 87, trans-8-Chloro-1-[4-(5-ethyl-[1,2,4]oxadiazol-3-yl)-cyclohexyl]-5,6-dihydro-4H-2,3,5,10b-tetraaza-benzo[e]azulene hydrochloride] | 145 |
| CCc1nc([C@H]2CC[C@H](c3nnc4n3-c3ccc(Cl)cc3CN(C)C4)CC2)no1 [Example 88] | 14.5 |
| CCc1nc([C@H]2CC[C@@H](c3nnc4n3-c3ccc(Cl)cc3CNC4)CC2)no1 [Example 89, cis-8-Chloro-1-[4-(5-ethyl-[1,2,4]oxadiazol-3-yl)-cyclohexyl]-5,6-dihydro-4H-2,3,5,10b-tetraaza-benzo[e]azulene hydrochloride] | 2750 |
| CCc1nc([C@H]2CC[C@@H](c3nnc4n3-c3ccc(Cl)cc3CN(C)C4)CC2)no1 [Example 90] | 295 |
| CC(C)c1nc([C@H]2CC[C@@H](c3nnc4n3-c3ccc(Cl)cc3CN(C(=O)OC(C)(C)C)C4)CC2)no1 [Example 91, cis-8-Chloro-1-[4-(5-isopropyl-[1,2,4]oxadiazol-3-yl)-cyclohexyl]-4H,6H-2,3,5,10b-tetraaza-benzo[e]azulene-5-carboxylic acid tert-butyl ester] | 34.7 |
| CC(C)c1nc([C@H]2CC[C@H](c3nnc4n3-c3ccc(Cl)cc3CN(C(=O)OC(C)(C)C)C4)CC2)no1 [Example 92, trans-8-Chloro-1-[4-(5-isopropyl-[1,2,4]oxadiazol-3-yl)-cyclohexyl]-4H,6H-2,3,5,10b-tetraaza-benzo[e]azulene-5-carboxylic acid tert-butyl ester] | 3.09 |
| CC(C)c1nc([C@H]2CC[C@H](c3nnc4n3-c3ccc(Cl)cc3CNC4)CC2)no1 [Example 93, trans-8-Chloro-1-[4-(5-isopropyl-[1,2,4]oxadiazol-3-yl)-cyclohexyl]-5,6-dihydro-4H-2,3,5,10b-tetraaza-benzo[e]azulene hydrochloride] | 263 |
| CC(C)c1nc([C@H]2CC[C@H](c3nnc4n3-c3ccc(Cl)cc3CN(C)C4)CC2)no1 [Example 94] | 19.5 |
| CC(C)c1nc([C@H]2CC[C@@H](c3nnc4n3-c3ccc(Cl)cc3CNC4)CC2)no1 [Example 95, cis-8-Chloro-1-[4-(5-isopropyl-[1,2,4]oxadiazol-3-yl)-cyclohexyl]-5,6-dihydro-4H-2,3,5,10b-tetraaza-benzo[e]azulene hydrochloride] | 2950 |
| CC(C)c1nc([C@H]2CC[C@@H](c3nnc4n3-c3ccc(Cl)cc3CN(C)C4)CC2)no1 [Example 96] | 204 |
| Cc1nc([C@H]2CC[C@H](c3nnc4n3-c3ccc(Cl)cc3CN(C(=O)OC(C)(C)C)C4)CC2)oc1Cl [Example 98, trans-8-Chloro-1-[4-(5-chloro-4-methyl-oxazol-2-yl)-cyclohexyl]-4H,6H-2,3,5,10b-tetraaza-benzo[e]azulene-5-carboxylic acid tert-butyl ester] | 1.1 |
| Cc1nc([C@H]2CC[C@H](c3nnc4n3-c3ccc(Cl)cc3CNC4)CC2)oc1Cl [Example 99, trans-8-Chloro-1-[4-(5-chloro-4-methyl-oxazol-2-yl)-cyclohexyl]-5,6-dihydro-4H-2,3,5,10b-tetraaza-benzo[e]azulene] | 5.37 |
